Tests used:
As #41 [1] = assay: RIA (Assay 2): competition with iodinated inhibin for As #41; type: binding, sheep; details: biotinylated peptides; 50% fall in binding of iodinated inhibin
Excerpt: (§1) This assay was used to determine which peptides compete with iodinated 30 kDa inhibin for As #41, #128 and #1989 (used in the original inhibin RIA, Lapphorn et al., 1989, supra) in a RIA format. This assay identifies those peptides that bind to inhibin-binding antibodies in the antiserum and provides a stricter affinity and specificity assessment in identifying the appropriate epitopes than that found with Assay 1. The competition between peptide and hr-inhibin (used as the standard) was assessed from their ED50 values. The RIA consisted of the competition of iodinated inhibin and either hr-inhibin reference preparation, individual peptides or pools from the 4 peptide regions, with As #41, #128 and in some instances, As #1989. The peptides/inhibin/iodinated inhibin and antisera (at a prescribed dilution) were incubated overnight at 4° C. using standard methodologies. The antibody-bound iodinated inhibin was immunoprecipitated with the addition of an anti-sheep IgG serum raised in goats and the radioactivity was measured in a gamma counter. The concentration of peptide that gives a 50% fall in binding of iodinated inhibin (ED50) was determined and this value was used to give a measure of the affinity of the peptide for the antiserum. This methodology consisted of determining the ED50 of the peptide in the RIA using iodinated human recombinant inhibin as tracer with either As #41, As #128 or As #1989 and graded doses of either hr-inhibin or peptide as described in Example 2.

As #128 [2] = assay: RIA (Assay 2): competition with iodinated inhibin for As #128; type: binding, sheep; details: biotinylated peptides; 50% fall in binding of iodinated inhibin
Excerpt: as §1

As #1989 = assay: RIA (Assay 2): competition with iodinated inhibin for As #1989; type: binding, rabbit; details: biotinylated peptides; 50% fall in binding of iodinated inhibin
Excerpt: as §1

PO-12 [3] = assay: Solid phase binding of Set 2 peptides to PO-12; design: species or system mouse; key: +++; ΦΦΦ strong effect; +, Φ weak effect; details: Set 2 biotinylated peptides 24 micromoles/L
Protocol: (§2) The binding of the 41 biotinylated peptides as set forth in Table 7 (peptide set 2) to the mouse monoclonal antibodies (PO# series) was assessed as follows:
(§3) a) Assay 1 (solid phase assay). The assay was undertaken as outlined in assay 1 of Example 2. Biotinylated peptides (24 micromoles/L) were initially bound to streptavidin-coated plates. Mab (at an appropriate dilution to give a detectable response, 1:1000, 1:10000 dilution of the culture medium) was then added and incubated for 1.5 hr. The amount of bound Mab was determined using horseradish peroxidase-bound anti-mouse IgG serum and enzyme activity detected at 450-630 nm using an ELISA plate reader.

PO-14 [4] = assay: Solid phase binding of Set 2 peptides to PO-14; design: species or system mouse; key: +++; ΦΦΦ strong effect; +, Φ weak effect; details: Set 2 biotinylated peptides 24 micromoles/L
Protocol: as §2, §3

PO-12 [5] = assay: RIA of Set 2 peptides with PO-12; type: binding, mouse; design: key: ΦΦΦ strong effect; +, Φ weak effect; a) limited binding; details: Set 2 biotinylated peptides 0.8 and 0.08 micromoles/L
Protocol: (§4) The binding of the 41 biotinylated peptides as set forth in Table 7 (peptide set 2) to the mouse monoclonal antibodies (PO# series) was assessed as follows: b) Assay 2 (radioimrnunoassay, RIA) using iodinated human inhibin A as tracer. Mabs (at an appropriate dilution, see above) were incubated with iodinated human recombinant inhibin in the presence of biotinylated peptides (0.8 and 0.08 micromoles/L final concentration) overnight at room temperature.

PO-14 [6] = assay: RIA of Set 2 peptides with PO-14; type: binding, mouse; design: key: ΦΦΦ strong effect; +, Φ weak effect; a) limited binding; details: Set 2 biotinylated peptides 0.8 and 0.08 micromoles/L
Protocol: as §4

R1 [7] = assay: Solid phase binding of Set 2 peptides to R1; design: species or system mouse; key: +++; ΦΦΦ strong effect; +, Φ weak effect; details: Set 2 biotinylated peptides 24 micromoles/L
Protocol: as §2, §3

PO-6 = assay: Solid phase binding of Set 2 peptides to PO-6; design: species or system mouse; key: +++; ΦΦΦ strong effect; +, Φ weak effect; details: Set 2 biotinylated peptides 24 micromoles/L
Protocol: as §2, §3

PO-22 [8] = assay: Solid phase binding of Set 2 peptides to PO-22; design: species or system mouse; key: +++; ΦΦΦ strong effect; +, Φ weak effect; details: Set 2 biotinylated peptides 24 micromoles/L
Protocol: as §2, §3

PO-22 [9] = assay: RIA of Set 2 peptides with PO-22; type: binding, mouse; design: key: ΦΦΦ strong effect; +, Φ weak effect; a) limited binding; details: Set 2 biotinylated peptides 0.8 and 0.08 micromoles/L
Protocol: as §4

R1 [10] = assay: RIA of Set 2 peptides with R1; type: binding, mouse; design: key: ΦΦΦ strong effect; +, Φ weak effect; a) limited binding; details: Set 2 biotinylated peptides 0.8 and 0.08 micromoles/L
Protocol: as §4

As #41 [11] = assay: Solid phase assay (Assay 1): biotinylated peptides binding to As #41; design: species or system sheep; key: +++++ major contribution; + minor contribution; details: relative contribution
Protocol: (§5) This assay is a broad screen of the binding of the 31 biotinylated peptides to As #41 and #128 as recommended by Chiron Mimotopes.
(§6) The biotinylated peptides were initially bound to streptavidin-coated 96-well plates (2 hours at room temperature), antiserum #41 or #128 was then added (2 hours room temperature) to bind to the peptides. Detection of antiserum binding was assessed by a further incubation with an anti-ovine IgG serum labeled with the enzyme, horseradish peroxidase. The enzyme activity was assessed by conversion of a colorless substrate to a colored product that is detected in a spectrophotometer. The enzyme activity measured was proportional to the extent of the binding of the peptides.

As #128 [12] = assay: Solid phase assay (Assay 1): biotinylated peptides binding to As #128; design: species or system sheep; key: +++++ major contribution; + minor contribution; details: relative contribution
Protocol: as §5, §6

As #128 [13] = assay: Competitive 2-site assay (Assay 3), approach (a); type: binding, sheep; design: key: +++++ major contribution; + minor contribution; details: relative contribution
Excerpt: This assay was developed to establish the relative importance of the individual peptides and peptide pools (identified as epitopes in Assays 1 and 2) in the sandwich antibody format used in the IFMA with As #128 as capture antibody and As #41 as detection antibody. Two approaches (a and b) were considered, Approach (a) explores the cross-reaction of peptides with inhibin for the immobilized As #128 while Approach (b) assesses their cross-reaction with inhibin for As #41.
Approach (a). The biotinylated peptide pools and/or individual peptides at various concentrations, in combination with a fixed concentration of hr-inhibin, were incubated for 2 hours with As #128-coated plates. The plates were then washed to remove any unbound material. Iodinated As #41 was then added to bind to the bound hr-inhibin, the plates washed and the bound radioactivity was measured in a gamma counter. The counts measured were proportional to the amount of hr-inhibin bound to both antisera. The possibility that a peptide contained two epitopes capable of linking As #128 and #41 was assessed in the absence of added hr-inhibin.

| Substance | PO-12 SPB (PO-12 [3]) | PO-14 SPB (PO-14 [4]) | R1 SPB (R1 [7]) | PO-6 SPB (PO-6) | PO-22 SPB (PO-22 [8]) | #41 Antibody screen Assay 1 (As #41 [11]) | #128 Antibody screen Assay 1 (As #128 [12]) | As#41 ED50 (As #41 [1]) [µM] | As#128 ED50 (As #128 [2]) [µM] | As#1989 ED50 (As #1989) [µM] | PO-12 RIA (PO-12 [5]) | PO-14 RIA (PO-14 [6]) | PO-22 RIA (PO-22 [9]) | R1 RIA (R1 [10]) | #128 2-site competitive assay Assay 3 (As #128 [13]) |
| --- | --- | --- | --- | --- | --- | --- | --- | --- | --- | --- | --- | --- | --- | --- | --- |
| SGSG QPCCAALPGTMRPL [Peptide 26] | +++ | +++ | – | – | – | – | – | 1 | 0.625 | >2.5 | ΦΦΦ | ΦΦΦ | – | – | – |
| SGSG DGGYSFKYETVPNL [Peptide 31] | – | – | – | – | – | + | – | 2.4 | 1.4 | >2.5 | – | – | – | – | – |
| SGSG MSWPWSPSALRLLQ [Peptide 4] | – | – | + | +++ | +++ | – | + | 1.3 | 3.8 | >2.5 | – | – | ΦΦΦ | – | + |

More lines, main results first:

| PO-12 SPB (PO-12 [3]) | PO-14 SPB (PO-14 [4]) | R1 SPB (R1 [7]) | PO-6 SPB (PO-6) | PO-22 SPB (PO-22 [8]) | #41 Antibody screen Assay 1 (As #41 [11]) | #128 Antibody screen Assay 1 (As #128 [12]) | Substance | As#41 ED50 (As #41 [1]) [µM] | As#128 ED50 (As #128 [2]) [µM] | As#1989 ED50 (As #1989) [µM] | PO-12 RIA (PO-12 [5]) | PO-14 RIA (PO-14 [6]) | PO-22 RIA (PO-22 [9]) | R1 RIA (R1 [10]) | #128 2-site competitive assay Assay 3 (As #128 [13]) |
| --- | --- | --- | --- | --- | --- | --- | --- | --- | --- | --- | --- | --- | --- | --- | --- |
| +++ | +++ | – | – | – | – | – | SGSG PYSLLPGAQPCCAA [Peptide 24] | 6.2 | 0.9 | >2.5 | ΦΦΦ | ΦΦΦ | – | – | – |
| – | – | +++ | +++ | +++ | – | – | SGSG STPLMSWPWSPSAL [Peptide 3] | – | 38 | >2.5 | – | – | ΦΦΦ | ΦΦΦ | – |
